# Laboratory results published in patent US7572774B2, “Methods for treating glutamate cytotoxicity with beta-naphthoquinone compounds” (Centre National de la Recherche Scientific (C.N.R.S.), priority 1999, dated 2009).
# Test system: release of glutamate from synaptosomes of mouse brains
# Assay: Release of glutamate from synaptosomes of mouse brains (cerebellar mossy fibers), spontaneous and induced by depolarization, chemiluminescence detection
# Assay type: cell-based
# Procedure: B: Study of the effect of naftazone and of its glucuronide derivatives on the release of glutamate from synaptosomes of mouse brains.
# In order to prepare the synaptosomes of mossy fibers, the Swiss-Webster […] are decapitated and the cerebellum is rapidly removed. Small pieces of tissue (1–2 mm^3) are washed in 100 ml of a mammal saline standard solution containing (mM): NaCl, 136; KCl, 5.6; MgCl2 1.2; CaCl2 2.2; glucose 5.5; NaHCO3 7.5; NaHPO4/Na2HPO4 buffer 1.2.
# An oxygen current is caused to flow through them for 10 minutes.
# In order to dissociate the pieces, they are sucked in a reciprocal movement with a 1 ml pipette.
# The homogenate obtained is diluted in 3 ml of mammal Krebs's solution and is filtered through a Nylon® tissue (mesh 50 μm).
# The filtrate is collected and left to settle for 30–45 min by gravity.
# Synaptosomes derived from the glutarmatergic mossy fibers settle because or their large size with the nuclear fraction. The supernatant is discarded and the sediment is resuspended in 1 ml of a standard solution. The release of glutamate from the synaptosomes is detected according to the technique used for evaluating it in the CSF.
# FIGS. 2A and 2B show the effects of naftazone (at concentrations of 0.5–50 μM) and of its glucuronidated derivative, respectively, on the spontaneous release of glutamate (curve -∘-) and of that induced by depolarization (curve -•-).
# Each point in A and B represents the ISEM average of 3 measurements carried out in triple. In A, the spontaneously released glutamate is continuously measured during an exposure of 1 hour to the tested drug and is compared with controls. Release of glutamate by depolarization is determined after a 1 hour exposure to the tested drug and is compared with controls.
# The drugs are left to incubate for 1 hour with synaptosomal aliquots before the measurement.
compound,measurement,setting,value
"NC(=O)NNc1ccc2ccccc2c1O[C@@H]1O[C@H](C(=O)O)[C@@H](O)[C@H](O)[C@H]1O [glucuronidated derivative, 1-(1-hydroxy,2-naphthyl)semicarbazide-1-β-O-glucopyranosiduronic acid]",release of glutamate induced by a medium with a high K+ content,"K+ (20 mM) containing Ca (5 mM), FIG. 2B","reduces, in a dose-dependent way"
same,maximum reduction of K+-induced release of glutamate,"at highest concentration tested (32 μM), K+ 20 mM, Ca 5 mM",about 60%
same,spontaneous release of glutamate from synaptosomes,"glucuronidated derivative, range of the concentrations used (FIG. 2B)",does not reduce the spontaneous release of glutamate
